Here are results for four compounds from patent US6391327B1, “Pesticidal composition” (priority 1998, dated 2002).

Read-outs that look alike come from different tables or passages of the source.

Series [1] concerns housefly (Musca domestica) which is resistant to pyrethroid. The class given is in vivo. The following applies: topical, 2 days later, average of 3. From the text: One half (0.5)μL of the following acetone dissolving solution wherein the concentration was adjusted to set forth a dosage given below, was applied to the back thoracic region of a housefly (Musca domestica) which is resistant to pyrethroid and the mortality was examined 2 days later.

Series [2] has as its system Formosan subterranean termites (Coptotermes formosanus). Description: Soil tunneling test in glass tube with Formosan subterranean termites. As to conditions: concentration of application 20 ppm, a week later, three repeats. The class given is in vivo. The method, then:
Three (3) cm of soil was packed into the central inner portion of a glass tube that has an inner diameter of 1.7 cm and is 15 cm long, and on one surface of the soil, 0.7 mL of each aqueous solution that has the examined compound formulated to a determined dilution (examined compound and applied concentration given in table 3). Subsequently, 4% agar was inserted onto both surfaces of the soil, 50 worker Formosan subterranean termites (Coptotermes formosanus) and 5 soldier Formosan subterranean termites were deposited into side of the inner part of the tube wherein no compound was applied, and the tunneled soil condition by the termites was examined a week later. The example was repeated thrice.
Within the results of table 3, A represents a condition wherein the termites tunneled through the surface of the soil of the treated side and the non-treated side, B represents a condition wherein the surface of the soil of the treated side was tunneled through and the agar was tunneled halfway, C represents a condition wherein the surface of the soil of the treated side was incompletely tunneled through and the agar had no visible tunneling.

In the case of `CNC(=N[N+](=O)[O-])NCC1CCOC1` (stereo not shown) [Compound B, 1-(tetrahydrofuran-3-yl)methyl-3-methyl-2-nitroguanidine], the entries for the “mortality (%)” value in series [1] (dosage 0.625 μg per insect) and in series [1] (dosage 1.25 μg per insect) were 10% and 45%, respectively. The “results (tunneled soil condition by the termites)” value in series [2] is “ACA”.

`C/C(=N\C#N)N(C)Cc1ccc(Cl)nc1` [Compound A, (E)-N^1-[(6-chloro-3-pyridyl)methyl]-N^2-cyano-N^1-methylacetamidine]: the figures for the “mortality (%)” value in series [1] (dosage 1.25 μg per insect), in series [1] (dosage 5 μg per insect) and in series [1] (dosage 10 μg per insect) were 15%, 15% and 5%, respectively.

For `C#CCC1=C(C)C(OC(=O)C2C(C=C(C)C)C2(C)C)CC1=O` (mixture of isomers) [Prallethrin, (S)-2-methyl-4-oxo-3-prop-2-ynylcyclopent-2-enyl (1R)-cis,trans-2,2-dimethyl-3-(2-methylprop-1-enyl)cyclopropanecarboxylate], the “mortality (%)” value in series [1] (dosage 1.25 μg per insect) is 6.7%; in series [1] (dosage 2.5 μg per insect), 10%; in series [1] (dosage 5 μg per insect) it was 30%.

`CN1COCN(Cc2cnc(Cl)s2)C1=N[N+](=O)[O-]` [Compound D, 3-[(2-chloro-5-thiazolyl)methyl]-5-methyl-4-nitroiminotetrahydro-1,3,5-oxadiazine]: in series [2], the “results (tunneled soil condition by the termites)” value is reported as “AAA”.
